Where a SMILES comes first, the peptide text is derived from it.
Legend:
[1] = test system: sensory panelists; experiment: Sweetness modifier test, control vs sample with 30 ppm rebaudioside J (Example 6A); assay type: in vivo, human; conditions: sweetener plus 30 ppm rebaudioside J vs sweetener alone; about 5% SEV / 5 degrees Brix; pH 3.1 phosphate buffer; 13 to 16 panelists
Description: The ability of rebaudioside J to modify the sweetness of natural and artificial sweeteners was assessed by comparing the sweetness of control samples without rebaudioside J to the sweetness of samples containing a mixture of the natural or artificial sweetener being tested and rebaudioside J. Control solutions were prepared by dissolving sucrose, HFCS, acesulfame-K, aspartame, and sucralose in pH 3.1 phosphate buffer. […] Sucrose and high fructose corn syrup (HFCS) were prepared as 5 degrees Brix solutions. This concentration was confirmed with an Anton Paar refractometer. […] Experimental samples were identical to control samples except for the addition of 30 ppm rebaudioside J. Tasting Protocol: The number of sensory panelists ranged from 13 to 16 for all sweeteners tested. Panelists were provided with a control sample prepared as described above. Panelists were also provided with an otherwise identical experimental sample prepared as described above. Panelists were asked to determine which sample tasted sweeter. […] Panelists wore nose clips and were blinded to the identity of the samples. Sensitivity index, also referred to as a “d' score” was calculated using known statistical methods.

[2] = test system: trained sensory panelists; experiment: Dose response, trained sensory panel, 15-point line scale (Example 4A); assay type: in vivo, human; conditions: eight concentrations 11.13-625.61 ppm
Description: Eight concentrations of rebaudioside J with one blank solution were evaluated (Table 1). Trained sensory panelists participated in an orientation session to familiarize themselves with sample set. Three evaluations (replicates) were obtained from each panelist for each evaluation, and a total of 30 judgments were obtained for each sample.
The panelists were served 10 mL portions of each sample. A 10-minute break was taken between samples. To determine sweetness intensity, the panelists were provided sucrose-containing sweetness intensity reference samples for intensities 5, 8, and 10. For each test sample, the panelists indicated the sweetness intensity of the test sample (labeled with a 3-digit number) on a 15-point line scale.

[3] = test system: trained sensory panelists; experiment: Targeted descriptive analysis (Example 4C); assay type: in vivo, human; conditions: vs rebaudioside A
Description: Panelists participated in an orientation session to familiarize themselves with sample set. They reviewed aroma, taste, flavor, and texture to determine the attributes most important for describing and differentiating the samples. These attributes were used to develop the ballot for the test evaluations. Three evaluations (replicates) were obtained from each panelist for each evaluation, and a total of 30 judgments were obtained for each sample. 45 mL of each sample was served in a sequential monadic presentation. The serving order was balanced for each panelist. For each test sample, the panelists indicated the intensity of each sensory attribute (labeled with a 3-digit number) on a 15-point line scale.

[4] = test system: human sense of taste; experiment: Sweetness recognition threshold comparison with 1.5% sucrose; assay type: in vivo; conditions: rebaudioside J 40 ppm
Text: The term “sweetness recognition threshold concentration,” as generally used herein, is the lowest known concentration of a given sweetener or combination of sweeteners recognized as sweet by the human sense of taste, typically about 1.5% sucrose equivalence.

[5] = test system: panelists; experiment: Benchtop sweetness ranking on 1-10 scale against rebaudioside A 400 ppm and sucrose 6.5% (Example 3); assay type: in vivo, human; conditions: 400 ppm
Description: Sample preparation: 4 degrees Brix HFCS control solution was prepared by adding 50.89 grams of 78.60 degrees Brix HFCS to 1000 g phosphoric acid base which was prepared by adding phosphoric acid dropwise into 1 L of AQUAFINA water until a pH of 3.1 was observed on a calibrated METTLER TOLEDO PH meter.
For some low soluble compounds, Branson 2800 Ultra Sonic Bath was used to dissolve the material. If any cloudiness persisted, the sample solution was passed through a paper filter. Solubility was confirmed by shining a laser pointer through the solution. If no diffraction was observed then it was assumed that the material was soluble.
Preparation of Rebaudioside A for Sensory Evaluation: 400 ppm rebaudioside A in water (pH=7) was prepared by dissolving 40 mg of rebaudioside A with stirring in 100 mL of water at room temperature.
Preparation of Sucrose for Sensory Evaluation: 6.5% sucrose in water (pH=7) was prepared by adding 6.5 g of sucrose and dissolving it in 93.5 g water (total 100 gr).
Tasting Protocol: Panelists were presented with two numbered samples and asked to note the sweet quality differences between the two samples. Panelists commented on sweetness onset, sweetness linger, overall sugar-like sweetness, and other qualities, such as bitter taste, metallic note, astringency, cooling sensation, any off-notes, and any associated flavors. […]

[6] = test system: trained sensory panelists; experiment: Adaptation, sweetness and bitterness over time (Example 4B); assay type: in vivo, human
Description: Three evaluations (replicates) were obtained from each panelist for each evaluation, and a total of 30 judgments were obtained for each sample. The samples were evaluated for sweetness and bitterness. Samples were presented blind and coded with random three-digit numbers.
Each panelists took a sip, swirled the sample in his or her mouth for 10 seconds, expectorated and subsequently rated sweetness intensity and bitterness intensity using a 15-point line scale. Panelists repeated this procedure every 30 seconds for 3 minutes. After rinsing 6 times with water, the panelists were given a new sample and that sample was evaluated using the procedure described above

[7] = rated every 30 seconds for 3 minutes, 15-point line scale

Structure (SMILES): OC[C@H]1O[C@@](CO)(O[C@H]2O[C@H](CO)[C@@H](O)[C@H](O)[C@H]2O)[C@@H](O)[C@@H]1O [Sucrose, sucrose]
- Panelist reporting Rebaudioside J increased sweetness (%) [1]: 85%
- d' Score [1]: 2.00

Structure (SMILES): COC(=O)[C@H](Cc1ccccc1)NC(=O)[C@@H](N)CC(=O)O [Aspartame, aspartame] (H-Asp-Phe-OMe)
- Panelist reporting Rebaudioside J increased sweetness (%) [1]: 86%
- d' Score [1]: 2.13

Structure (SMILES): OC[C@H]1O[C@H](O[C@]2(CCl)O[C@H](CCl)[C@@H](O)[C@@H]2O)[C@H](O)[C@@H](O)[C@H]1Cl [Sucralose, sucralose]
- Panelist reporting Rebaudioside J increased sweetness (%) [1]: 89%
- d' Score [1]: 2.44

Structure (SMILES): C=C1C[C@@]23CC[C@H]4[C@@](C)(CCC[C@@]4(C)C(=O)O[C@@H]4O[C@H](CO)[C@@H](O)[C@H](O)[C@H]4O[C@@H]4O[C@@H](C)[C@H](O)[C@@H](O)[C@H]4O)[C@@H]2CC[C@]1(O[C@@H]1O[C@H](CO)[C@@H](O)[C@H](O[C@@H]2O[C@H](CO)[C@@H](O)[C@H](O)[C@H]2O)[C@H]1O[C@@H]1O[C@H](CO)[C@@H](O)[C@H](O)[C@H]1O)C3 [Rebaudioside J, rebaudioside J]
- bitterness intensity (FIG. 4) [2]: low and only increased slightly with increasing concentration
- sweetness intensity (FIG. 4) [2]: increases with increasing concentration
- bitterness compared with rebaudioside A (FIG. 6) ([3]; 15-point line scale): less bitter
- chemical/artificial taste compared with rebaudioside A (FIG. 6) ([3]; 15-point line scale): less chemical/artificial taste than rebaudioside A
- overall impression compared with rebaudioside A (FIG. 8) [3]: scored higher in overall impression than rebaudioside A
- sweetness compared with 1.5% sucrose (sweetness recognition threshold) [4]: less sweet than 1.5% sucrose
- panelists' notes on taste characteristics [5]: lack of bitterness, sugar-like, syrupy and round characteristics
- sweetness score on scale of 1-10 (FIG. 3) ([5]; rebaudioside A 400 ppm assigned 5, sucrose 6.5% assigned 10, noseclips, blinded): 6.7
- bitterness intensity over time (FIG. 5) [6, 7]: remains low
- sweetness intensity over time (FIG. 5) [6, 7]: decreases over time
- bitterness over time compared with rebaudioside A (FIG. 7) ([6]; vs rebaudioside A): less bitter than rebaudioside A

Structure (SMILES): CC1=CC(=O)NS(=O)(=O)O1 [Acesulfame potassium]
- Panelist reporting Rebaudioside J increased sweetness (%) [1]: 85%
- d' Score [1]: 2.30

From patent US20250031734A1, “COMPOSITIONS COMPRISING REBAUDIOSIDE J” (PepsiCo, Inc., priority 2016, published 2025)
